The supplement of paper PMC10307832

Experiments:
Test in all cases: relative viability (nuclei count vs DMSO), 5 days (fraction); higher = more cells survive
[1] = compound: C1=CC=C2C(=C1)N=C(S2)C(C#N)C3=NC(=NC=C3)NCCC4=CN=CC=C4 + Nc1ncn([C@H]2C[C@H](O)[C@@H](CO)O2)c(=O)n1 [Decitabine] (partner 2 µM)
How it was run: (§1)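 Relative viability is defined as nuclei in treated wells over nuclei in vehicle wells. Duplicate plates were run and medians reported. Lung cancer cell lines in 1536-well plates were dosed by pin tool one day after seeding, with one drug or with a fixed anchor-drug dose plus five library-drug doses (not always all listed) in √10 steps, and nuclei were counted after 5 days.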

[2] = compound: C#Cc1cccc(Nc2ncnc3cc(OC)c(OCCCCCCC(=O)NO)cc23)c1 [CUDC-101] + CCNC(=O)c1noc(-c2cc(C(C)C)c(O)cc2O)c1-c1ccc(CN2CCOCC2)cc1 [Luminespib] (partner 0.01 µM)
How it was run: as §1

[3] = compound: C1=CC=C2C(=C1)N=C(S2)C(C#N)C3=NC(=NC=C3)NCCC4=CN=CC=C4 + Cc1nc(Nc2ncc(C(=O)Nc3c(C)cccc3Cl)s2)cc(N2CCN(CCO)CC2)n1 [Dasatinib] (partner 0.075 µM)
How it was run: as §1

[4] = compound: C1=CC=C2C(=C1)N=C(S2)C(C#N)C3=NC(=NC=C3)NCCC4=CN=CC=C4 + O=C(c1cc(Cc2n[nH]c(=O)c3ccccc23)ccc1F)N1CCN(C(=O)C2CC2)CC1 [Olaparib] (partner 8 µM)
How it was run: as §1

Cell Line	relative viability ([1]; first compound 0.005 µM)	relative viability ([1]; first compound 0.01581 µM)	relative viability ([1]; first compound 0.05 µM)	relative viability ([1]; first compound 0.1581 µM)	relative viability ([1]; first compound 0.5 µM)	relative viability ([2]; first compound 0.01 µM)	relative viability ([2]; first compound 0.03162 µM)	relative viability ([2]; first compound 0.1 µM)	relative viability ([2]; first compound 0.3162 µM)	relative viability ([2]; first compound 1 µM)	relative viability ([3]; first compound 0.005 µM)	relative viability ([3]; first compound 0.01581 µM)	relative viability ([3]; first compound 0.05 µM)	relative viability ([3]; first compound 0.1581 µM)	relative viability ([3]; first compound 0.5 µM)	relative viability ([4]; first compound 0.005 µM)	relative viability ([4]; first compound 0.01581 µM)	relative viability ([4]; first compound 0.05 µM)	relative viability ([4]; first compound 0.1581 µM)	relative viability ([4]; first compound 0.5 µM)
NCI-H522	0.718	0.651	0.607	0.639	0.66	1.18	1.19	1.03	1.66	0.686	0.873	0.822	0.884	1.05	0.935	0.66	0.638	0.634	0.533	0.751
RERF-LC-KJ	0.621	0.773	0.682	0.785	0.606	1.36	1.3	1.25	1.18	0.794	0.796	0.863	0.756	0.952	0.527	0.923	0.993	0.895	0.97	0.44
A-427	0.599	0.495	0.568	0.555	0.574	0.919	0.92	0.864	0.75	0.55	0.66	0.743	0.764	0.688	0.822	0.699	0.694	0.698	0.856	0.718
EKVX	0.152	0.286	0.309	0.329	0.23	0.916	0.677	0.749	0.982	0.81	0.464	0.473	0.523	0.473	0.547	1	0.865	0.797	0.689	0.673
NCI-H460	–	0.612	0.529	0.592	0.464	0.0424	0.0301	0.0366	0.0315	0.0288	0.356	0.47	0.451	0.732	0.418	0.4	0.502	0.43	0.516	0.333
HARA	0.7	0.574	0.634	0.538	0.584	0.465	0.682	0.616	0.311	0.185	0.355	0.281	0.246	0.235	0.372	0.773	0.659	0.942	0.822	0.954
NCI-H1944	0.404	0.497	0.412	0.433	0.388	0.757	0.545	0.732	0.565	0.53	0.211	0.195	0.21	0.22	0.2	0.358	0.432	0.361	0.41	0.619
BEN	0.654	0.666	0.664	0.863	0.811	0.534	0.402	0.467	0.302	0.37	0.229	0.323	0.326	0.479	0.425	0.976	1.21	1.03	1.05	0.853
PC-14	0.207	0.246	0.178	0.203	0.179	0.133	0.208	0.16	0.115	0.114	0.174	0.228	0.211	0.32	0.249	0.28	0.267	0.211	0.244	0.247
NCI-H322M	0.579	0.773	0.775	0.711	0.736	0.84	0.697	0.899	1.01	0.697	0.232	0.238	0.23	0.259	0.26	0.755	0.746	0.779	0.78	0.677
NCI-H1651	0.546	0.557	0.684	0.711	0.603	0.787	0.77	0.811	0.991	0.839	0.307	0.35	0.587	0.393	0.3	0.178	0.17	0.172	0.182	0.163
LCLC-97TM1	0.192	0.215	0.293	0.237	0.222	0.849	0.857	0.771	0.765	0.502	0.735	0.923	1.03	0.99	0.792	0.289	0.362	0.354	0.592	0.362
NCI-H727	0.992	0.879	0.983	1	0.786	0.399	0.392	0.558	0.342	0.396	–	0.387	0.368	0.413	0.347	0.734	0.622	0.806	0.746	0.679
NCI-H1623	–	–	–	–	–	0.469	0.46	0.445	0.632	0.392	0.476	0.476	0.514	0.612	0.591	–	–	–	–	–
NCI-H1666	0.72	0.696	0.8	0.738	0.798	1.09	1.02	1.1	1	1.07	0.603	0.754	0.734	0.838	0.818	0.754	0.761	0.764	0.767	0.681
IA-LM	–	–	–	–	–	–	–	–	–	–	–	–	–	–	–	–	0.883	0.804	0.836	0.763
NCI-H1792	–	0.736	0.638	0.675	0.388	0.459	0.381	0.578	0.504	0.25	0.722	0.83	0.837	1.29	0.665	–	0.709	0.427	0.38	0.215
NCI-H1299	–	–	–	–	–	–	–	–	–	–	–	–	–	–	–	0.966	1.05	1.01	1.05	0.894
HCC-366	0.328	0.385	0.363	0.344	0.321	–	–	–	–	–	0.591	0.848	0.539	0.824	0.676	0.189	0.449	0.349	0.372	0.354
NCI-H1437	0.484	0.6	0.508	0.602	0.548	1.27	1.06	1.12	1.21	1.19	0.363	0.303	0.528	0.562	0.376	0.542	0.607	0.65	0.673	0.507

Cell Line	relative viability ([1]; first compound 0.005 µM)	relative viability ([1]; first compound 0.01581 µM)	relative viability ([1]; first compound 0.05 µM)	relative viability ([1]; first compound 0.1581 µM)	relative viability ([1]; first compound 0.5 µM)	relative viability ([2]; first compound 0.01 µM)	relative viability ([2]; first compound 0.03162 µM)	relative viability ([2]; first compound 0.1 µM)	relative viability ([2]; first compound 0.3162 µM)	relative viability ([2]; first compound 1 µM)	relative viability ([3]; first compound 0.005 µM)	relative viability ([3]; first compound 0.01581 µM)	relative viability ([3]; first compound 0.05 µM)	relative viability ([3]; first compound 0.1581 µM)	relative viability ([3]; first compound 0.5 µM)	relative viability ([4]; first compound 0.005 µM)	relative viability ([4]; first compound 0.01581 µM)	relative viability ([4]; first compound 0.05 µM)	relative viability ([4]; first compound 0.1581 µM)	relative viability ([4]; first compound 0.5 µM)
EPLC-272H	0.501	0.337	0.36	0.385	0.309	0.141	0.554	0.598	0.269	0.257	0.283	0.304	0.264	0.374	0.312	–	0.803	0.733	0.825	0.517
NCI-H1703	–	–	–	–	–	–	–	–	–	–	–	–	–	–	–	0.357	0.353	–	0.377	0.66
HCC-15	0.568	0.608	0.644	0.66	0.564	0.169	0.279	0.299	0.559	0.596	0.569	0.578	0.564	0.703	0.508	0.663	0.727	0.662	0.837	0.686
NCI-H2347	0.638	0.634	0.556	0.683	0.654	0.617	0.458	0.47	0.415	0.331	0.359	0.814	0.261	0.347	0.307	0.607	0.611	0.627	0.642	0.525
COR-L 105	0.597	0.628	0.638	0.637	0.642	0.768	0.701	0.845	0.831	0.476	0.344	0.297	0.34	0.303	0.29	0.544	0.602	0.602	0.578	0.551
NCI-H1650	0.335	0.333	0.496	0.432	0.407	0.25	0.221	0.189	0.166	0.193	0.449	0.278	0.324	0.372	0.263	0.718	0.719	0.708	0.882	0.507
NCI-H838	0.435	0.461	0.425	0.47	0.445	0.302	0.248	0.228	0.251	0.218	0.204	0.28	0.325	0.264	0.262	0.622	0.829	0.731	0.773	0.546
NCI-H2009	0.37	0.386	0.379	0.427	0.397	1.07	0.904	1.06	1.02	0.928	0.257	0.25	0.261	0.324	0.267	0.667	0.669	0.664	0.438	0.684
SK-MES-1	0.48	0.405	0.372	0.409	0.41	0.854	0.72	0.755	0.567	0.52	0.303	0.403	0.394	0.327	0.371	0.821	0.76	0.617	0.798	0.569
H3255	0.574	0.561	0.561	0.639	0.726	0.845	0.648	–	0.541	0.439	0.312	0.329	0.346	0.509	0.319	0.55	0.594	0.603	0.575	0.534
HCC-78	0.776	0.779	0.634	0.825	0.747	–	–	–	–	–	0.386	0.337	0.42	0.609	0.407	0.852	0.935	0.816	0.936	0.756
Calu-6	–	–	–	–	–	–	–	–	–	–	–	–	–	–	–	0.602	0.619	0.52	0.644	0.505
NCI-H2228	–	–	–	–	–	0.114	0.164	0.169	0.19	0.188	0.295	0.491	0.442	0.514	0.423	0.481	0.738	0.489	0.729	0.527
NCI-H1563	–	–	–	–	–	0.447	0.526	0.506	0.531	0.495	0.536	0.413	0.426	0.44	0.473	–	–	–	–	–
EBC-1	–	–	–	–	–	–	–	–	–	–	–	–	–	–	–	0.784	0.757	0.656	0.629	0.574
A549	0.239	0.33	0.239	0.312	0.323	–	–	–	–	–	–	–	–	–	–	0.488	0.236	0.321	0.409	0.232
NCI-H1648	–	0.438	–	0.535	0.388	–	–	–	–	–	–	–	–	–	–	–	1.02	–	0.977	1.09
CAL-12T	–	–	–	–	–	0.525	0.337	0.337	0.556	0.36	0.236	0.308	0.341	0.508	0.242	0.712	0.658	0.739	0.866	0.648
HCC-44	0.956	0.933	0.971	0.978	1.01	0.947	0.909	1.03	1.03	1.06	–	–	–	–	–	0.994	1	0.987	1.01	0.968
